Consider 22 compounds from patent US8846704B2, “Thiopyrimidine-based compounds and uses thereof” (YM Biosciences Austraila Pty Ltd, priority 2007, dated 2014).

The structures appear in SMILES notation.

The assay addresses T1, human JAK2 (Homo sapiens, UniProt O60674).
T1 construct: The kinase domain of human JAK2 was amplified; GST (N); made in house; host or cells: Sf9 insect cells (baculovirus)
Briefly: Alphascreen tyrosine kinase enzyme assay, JAK2 kinase domain. The assay is classed as biochemical. The settings on record: read-out: JAK2 IC50_nM. The gist of the method:
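JAK2 kinase domain expressed in baculovirus/Sf9 and glutathione-affinity purified. Compounds (final […]) pre-incubated 20 min with enzyme in 10 mM HEPES pH 7.5, MgCl2, NaCl, vanadate, 0.1% Tween 20.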

T1 sequence (O60674 849-1124 limits assumed): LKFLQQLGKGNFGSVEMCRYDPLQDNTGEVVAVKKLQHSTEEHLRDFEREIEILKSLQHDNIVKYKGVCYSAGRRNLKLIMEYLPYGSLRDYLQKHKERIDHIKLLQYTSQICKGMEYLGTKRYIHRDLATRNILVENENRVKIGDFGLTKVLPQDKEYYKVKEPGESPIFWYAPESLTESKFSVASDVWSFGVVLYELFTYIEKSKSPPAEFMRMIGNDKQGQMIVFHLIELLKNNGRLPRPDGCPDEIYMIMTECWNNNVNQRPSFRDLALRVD

With `Cc1cnc(Nc2ccc(N3CCOCC3)cc2)nc1Sc1ccc(N2C(=O)COCC2=O)cc1` [Compound 190, 4-(4-(5-methyl-2-(4-morpholinophenylao)pyrimidin-4-ylthio)phenyl)morpholine-3,5-dione], the IC50 is under 500 nM.

On to `Cc1cnc(Nc2ccc(N3CCOCC3)cc2)nc1Sc1ccc(C(C#N)N2CCN(C)CC2)cc1` (stereo not shown) [Compound 225, 2-(4-(5-methyl-2-(4-morpholinophenylao)pyrimidin-4-ylthio)phenyl)-2-(4-methylpiperazin-1-yl)acetonitrile], for which the IC50 is over 1000 nM.

Regarding `NC(=O)c1ccc(Sc2ccnc(Nc3ccc(N4CCOCC4)cc3)n2)cc1` [Compound 207, 4-(2-(4-morpholinophenylao)pyrimidin-4-ylthio)benzamide], the IC50 was over 1000 nM.

Take `Cc1cnc(Nc2ccc(N3CCOCC3)cc2)nc1Sc1ccc(CC#N)cc1` [Compound 222, 2-(4-(5-methyl-2-(4-morpholinophenylao)pyrimidin-4-ylthio)phenyl)acetonitrile]: the IC50 is over 1000 nM.

Take `Cc1cnc(Nc2ccc(N3CCOCC3)cc2)nc1Sc1ccc(C=O)cc1` [Compound 219, 4-(5-methyl-2-(4-morpholinophenylao)pyrimidin-4-ylthio)benzaldehyde]: the IC50 was over 1000 nM.

`Cc1cnc(Nc2ccc(N3CCOCC3)cc2)nc1Sc1ccc(CO)cc1` [Compound 220, (4-(5-methyl-2-(4-morpholinophenylao)pyrimidin-4-ylthio)phenyl)methanol]: the IC50 was under 500 nM.

On to `Cc1cnc(Nc2ccc(N3CCOCC3)cc2)nc1Sc1ccc(NC2CCOC2=O)cc1` (stereo not shown) [Compound 228, 3-(4-(5-methyl-2-(4-morpholinophenylao)pyrimidin-4-ylthio)phenylao)dihydrofuran-2(3H)-one], for which the IC50 was over 1000 nM.

As for `Cc1cnc(Nc2ccc(N3CCOCC3)cc2)nc1Sc1cccc(CO)c1` [Compound 212, (3-(5-methyl-2-(4-morpholinophenylao)pyrimidin-4-ylthio)phenyl)methanol], the IC50 was under 500 nM.

On to `Cc1cnc(Nc2cccc(S)c2)nc1Sc1ccc(NC(=O)CCl)cc1` [Compound 195, 2-chloro-N-(4-(2-(3-mercaptophenylao)-5-methylpyrimidin-4-ylthio)phenyl)acetamide], for which the IC50 was over 1000 nM.

For `Cc1cnc(Nc2cccc(NS(C)(=O)=O)c2)nc1Sc1ccc(CO)cc1` [Compound 226, N-(3-(4-(4-(hydroxymethyl)phenylthio)-5-methylpyrimidin-2-ylao)phenyl)methanesulfonamide], the IC50 was over 1000 nM.

For the compound `N#CCc1ccc(Sc2ccnc(Nc3ccc(N4CCOCC4)cc3)n2)cc1` [Compound 210, 2-(4-(2-(4-morpholinophenylao)pyrimidin-4-ylthio)phenyl)acetonitrile], the IC50 is over 1000 nM.

On to `Cc1cnc(Nc2ccc(O)cc2)nc1Sc1ccc(N)cc1` [Compound 191, 4-(4-(4-aophenylthio)-5-methylpyrimidin-2-ylao)phenol], for which the IC50 was over 1000 nM.

As to `Cc1cnc(Nc2ccc(N3CCOCC3)cc2)nc1Sc1ccc(C(=O)N2CCCC2)cc1` [Compound 224, (4-(5-methyl-2-(4-morpholinophenylao)pyrimidin-4-ylthio)phenyl)(pyrrolidin-1-yl)methanone], the IC50 is under 1000 nM.

As to `C=CC(=O)Nc1cccc(Nc2nccc(SC)n2)c1` [Compound 7, N-(3-(4-(methylthio)pyrimidin-2-ylao)phenyl)acrylamide], the IC50 is over 1000 nM.

In the case of `Cc1cnc(Nc2ccc(N3CCOCC3)cc2)nc1Sc1ccc(N2CCSCC2=O)cc1` [Compound 197, 4-(4-(5-methyl-2-(4-morpholinophenylao)pyrimidin-4-ylthio)phenyl)thiomorpholin-3-one], the IC50 was over 1000 nM.

Turning to `CON(C)C(=O)c1ccc(Sc2nc(Nc3ccc(N4CCOCC4)cc3)ncc2C)cc1` [Compound 218, N-methoxy-N-methyl-4-(5-methyl-2-(4-morpholinophenylao)pyrimidin-4-ylthio)benzamide], the IC50 is over 1000 nM.

Take `c1cc(Sc2ccc(Cn3cncn3)cc2)nc(Nc2ccc(N3CCOCC3)cc2)n1` [Compound 204, 4-(4-((1H-1,2,4-triazol-1-yl)methyl)phenylthio)-N-(4-morpholinophenyl)pyrimidin-2-ae]: the IC50 was under 1000 nM.

`N#Cc1c(N)ncn1Cc1cccc(Sc2ccnc(Nc3ccc(N4CCOCC4)cc3)n2)c1` [Compound 199, 4-ao-1-(3-(2-(4-morpholinophenylao)pyrimidin-4-ylthio)benzyl)-1H-imiazole-5-carbonitrile]: the IC50 was under 1000 nM.

As for `Cc1cnc(Nc2ccc(N3CCOCC3)cc2)nc1Sc1ccc(NC(=O)CO)cc1` [Compound 229, 2-hydroxy-N-(4-(5-methyl-2-(4-morpholinophenylao)pyrimidin-4-ylthio)phenyl)acetamide], the IC50 is under 1000 nM.

`N#Cc1ncn(Cc2ccc(Sc3ccnc(Nc4ccc(N5CCOCC5)cc4)n3)cc2)c1N` [Compound 202, 5-ao-1-(4-(2-(4-morpholinophenylao)pyrimidin-4-ylthio)benzyl)-1H-imidazole-4-carbonitrile]: the IC50 was under 1000 nM.

Regarding `N#Cc1c(N)ncn1Cc1ccc(Sc2ccnc(Nc3ccc(N4CCOCC4)cc3)n2)cc1` [Compound 203, 4-ao-1-(4-(2-(4-morpholinophenylao)pyrimidin-4-ylthio)benzyl)-1H-imidazole-5-carbonitrile], the IC50 is under 1000 nM.

For `Cc1cnc(Nc2ccc(N3CCOCC3)cc2)nc1Sc1ccc(C(C#N)N2CCOCC2)cc1` (stereo not shown) [Compound 223, 2-(4-(5-methyl-2-(4-morpholinophenylao)pyrimidin-4-ylthio)phenyl)-2-morpholinoacetonitrile], the IC50 is over 1000 nM.
